Measured values published in patent publication US20130336987A1, “Identification of Therapeutic Targets in Cutaneous SCC” (UNIVERSITY OF DUNDEE, priority 2010, published 2013).
Entries after “also recorded” stand apart in the source; their conditions may differ.

How the values were obtained:
[1] = test system: cSCC keratinocytes (SCCIC1, SCCRDEB2); test: MTS cell viability assay in cSCC keratinocytes; format: cell-based, human; details: 72 hours, GW843682X 10 μM, BI2536 5 μM
Method: For the initial high-throughput RNAi screen we used a custom library to our 21 up regulated genes containing the top 3 siRNA oligonucleotides per gene as ranked by Sigma. In each experiment a negative control (MISSION® siRNA Universal Negative Control #1, Sigma) and positive control (AllStars Hs Cell Death Control siRNA, Qiagen) were used. Cells were seeded in 96-well plates at 5000 cells/well in 100 μl keratinocyte media and transfected 24 hours later with siRNA (40 nM final concentration) using Lipofectamine™ 2000, Invitrogen, Carlsbad, Calif.) diluted in Opti-MEM® (Invitrogen) according to manufacturers instructions. Cell viability was assessed at 48, 72 and 96 hours post-transfection, and a reading taken at time zero (pre-transfection), using the MTS CellTitre 96 AQueous One Solution Cell Proliferation Assay (Promega, Madison, Wis.) according to manufacturers instructions. Absorbance readings were taken at 490 nm using a VersaMax microplate reader (Molecular Devices, Sunnyvale, Calif.).
For RNAi transfection, cells were seeded in 6-well plates at 2.5×10^5 cells/well and 24 hours later transfected as described above. Cells were left for 16 hours then trypsinized, counted on a CASY counter (Roche Diagnostics Ltd, West Sussex, UK) and seeded in 96 well plates at 3000 cells/well in 100 μl media. […] Viability was assessed as before.

[2] = test system: normal human keratinocytes (NHK); test: MTS cell viability assay in normal keratinocytes; format: cell-based; details: 72 hours, GW843682X 10 μM, BI2536 5 μM
Method: For RNAi transfection, cells were seeded in 6-well plates at 2.5×10^5 cells/well and 24 hours later transfected as described above. Cells were left for 16 hours then trypsinized, counted on a CASY counter (Roche Diagnostics Ltd, West Sussex, UK) and seeded in 96 well plates at 3000 cells/well in 100 μl media. Cell viability was determined using the MTS assay as described above, with an absorbance reading at time of seeding (T0) and readings 48 and 72 hour post transfection. For small molecule inhibitor treatment cells were seeded in 96-well plates at 3000 cells/well and 24 hours later 100 μl fresh media containing drug at the designated final concentrations added. Viability was assessed as before.

cSCC keratinocytes [3] = test: Cell Death Detection ELISA (apoptosis, cytoplasmic nucleosomes) in cSCC cells; format: cell-based, human; details: GW843682X 10 μM, BI2536 5 μM, relative to drug vehicle control
Method: Apoptosis was detected using the Cell Death Detection ELISA^PLUS (Roche Diagnostics Ltd, West Sussex, UK). Cells were seeded in 24-well plates at 0.5×10^5 cells/well for 24 hours and either transfected with siRNA or treated with small molecule inhibitors for 24 or 16 hours respectively before collecting lysates and performing ELISA as described by manufacturer.

cSCC keratinocytes [4] = test: Cell cycle analysis (BrdU / propidium iodide, flow cytometry); format: cell-based, human; details: 20 hours following drug treatment, GW843682X 10 μM, BI2536 5 μM
Method: Cells were RNAi transfected or drug treated for designated times before BrdU (Sigma) was added at 30 μM final volume for 20 min. Cells were collected and fixed by dropping 1 ml cell suspension in PBS into 3 ml ice cold ethanol while vortexing. Pepsin (Sigma) was added at 1 mg/ml in 30 mM HCL for 30 min and DNA denatured with 2N HCL for 20 min. Anti-BrdU antibody (Becton Dickinson) diluted in PBS/0.5% Tween/0.5% BSA was added for one hour followed by 30 min incubation with a FITC-sheep anti-mouse IgG (Sigma). Propidium iodide (Sigma) was added in the final wash step at a concentration of 25 μg/ml and samples analyzed using a FACScan flow cytometer and CellQuest software (Becton Dickinson).

SCCIC1 xenograft tumors = test: SCCIC1 xenograft tumor treatment in SCID mice; format: in vivo, SCID Balb/c mice
Method: FIG. 6—PLK1 inhibition and c20orf20 knockdown inhibits tumor growth in vivo. Female SCID Balb/c mice were subcutaneously injected in the right flank with 4×10^6 SCCIC1 cells mixed with high-concentration Matrigel®. When tumors reached a volume of 100 mm^3, animals were organised in treated and control groups. (A) Top panel: SCCIC1 tumors were treated with the PLK1 inhibitor, BI 2536. The treated group (n=3) was injected into the tumor with 100 μl of BI 2536 formulated in hydrochloric acid (0.1 N), diluted with 0.9% NaCl at a dose of 25 mg/kg, 3 times a week during 2 weeks. The control group (n=2) was injected with the vehicle at the same schedule. Tumor volumes were measured 3 times a week with a calliper for a further 2 weeks after treatment. Bottom panel: SCCIC1 tumors were treated with c20orf20 siRNA. The treated group (n=3) was injected into the tumor with 580 pmol c20orf20 targeting siRNA duplex in 100 μl PBS. The control group was injected with 580 pmol non-targeting siRNA duplex in approximately 100 μl PBS. Each group was treated every other day for 16 cycles. The animals were sacrificed 2 days after the last treatment. (B) Representative H&E stained section (top) and keratin immunostained section (bottom) of control (left) and BI2536-treated (right) SCCIC1 tumors after 2 weeks of treatment. A subset of animals was sacrificed at the end of the 6 cycles of treatment without waiting 2 more weeks. […] The control tumors contained numerous SCCIC1 cells (100× magnification). (C) Representative pictures from the experiment shown in (A) of vehicle (top left, tumor bisected showing both halves delineated by the dashed line) and BI2536-treated (top right) SCCIC1 tumors. […]
Primary keratinocytes were isolated and grown in the presence of a mitotically inactivated 3T3 feeder layer as described (Rheinwald and Beckett, 1981). […] Tumors were measured by caliper and treatment began when volume reached 100 mm^3.

| SMILES | cell viability (MTS assay) [1] | growth of normal primary keratinocytes (MTS assay) [2] | apoptosis (cleaved nucleosomes in the cytoplasm) (cSCC keratinocytes [3]) | cell cycle distribution (G0/G1, S, G2/M) (cSCC keratinocytes [4]) | tumor volume at the end of the 6 cycles of treatment (SCCIC1 xenograft tumors; BI2536 25 mg/kg injected into the tumor, 3 times a week, 2 weeks, treated versus control group) | presence of tumor keratinocytes in the tumor (histology) (SCCIC1 xenograft tumors; BI2536 25 mg/kg injected into the tumor, 3 times a week, after 2 weeks of treatment, versus vehicle, 25 mg/kg) | efficacy in treating cSCC in vivo (SCCIC1 xenograft tumors; BI2536, SCCIC1 xenograft) |
| --- | --- | --- | --- | --- | --- | --- | --- |
| CC[C@@H]1C(=O)N(C)c2cnc(Nc3ccc(C(=O)NC4CCN(C)CC4)cc3OC)nc2N1C1CCCC1 [BI2536] | potent reduction of cell viability | no effect | substantial induction of apoptosis | accumulation of cells at the G2/M phase | no difference in tumor volume | without any discernable SCCIC1 tumor cells; also recorded: marked reduction in the presence of tumor keratinocytes | dramatic efficacy |
| COc1cc2ncn(-c3cc(OCc4ccccc4C(F)(F)F)c(C(N)=O)s3)c2cc1OC [GW843682X] | potent reduction of cell viability | no effect | substantial induction of apoptosis | accumulation of cells at the G2/M phase |  |  |  |
